Assays:
Assay in all cases: In vitro MIC, two-fold dilution in microtiter
Type in all cases: cell-based
[1] = tested on: Escherichia coli SKF 12140; conditions: 18-24 h at 37° C., inoculum about 10^4 CFU/ml
Description: (§1) Broth cultures are diluted enough so that the final inecuium is about 10^4 colony forming units/ml (CFU/ml).

[2] = tested on: Proteus vulgaris X19H ATCC 881; conditions: 18-24 h at 37° C., inoculum about 10^4 CFU/ml
Description: as §1

[3] = tested on: Pseudomonas aeruginosa ATCC 10145; conditions: for MIC Pseudomonas aeruginosa ATCC 10145: 18-24 h at 37° C., inoculum about 10^4 CFU/ml
Description: as §1

[4] = tested on: Staphylococcus aureus TOUR; conditions: 18-24 h at 37° C., inoculum about 10^4 CFU/ml
Description: as §1

[5] = tested on: Staphylococcus epidermidis ATCC 12228; conditions: 18-24 h at 37° C., inoculum about 10^4 CFU/ml
Description: as §1

[6] = tested on: Staphylococcus haemolyticus L 602; conditions: 18-24 h at 37° C., inoculum about 10^4 CFU/ml
Description: as §1

[7] = tested on: Streptococcus faecalis ATCC 7080; conditions: 18-24 h at 37° C., inoculum about 10^4 CFU/ml
Description: as §1

[8] = tested on: Streptococcus pneumoniae UC 41; conditions: 18-24 h at 37° C., inoculum about 10^4 CFU/ml
Description: as §1

[9] = tested on: Streptococcus pyogenes C 203; conditions: 18-24 h at 37° C., inoculum about 10^4 CFU/ml
Description: as §1

Compound | MIC Escherichia coli SKF 12140 [1] | MIC Proteus vulgaris X19H ATCC 881 [2] | MIC Pseudomonas aeruginosa ATCC 10145 [3] | MIC Staphylococcus aureus TOUR [4] | MIC Staphylococcus epidermidis ATCC 12228 [5] | MIC Staphylococcus haemolyticus L 602 [6] | MIC Streptococcus faecalis ATCC 7080 [7] | MIC Streptococcus pneumoniae UC 41 [8] | MIC Streptococcus pyogenes C 203 [9] | MIC against Pseudomonas aeruginosa (comparison compounds) ([3]; strain not specified ("the same microorganism"))
NCCNCCNC(=O)C1NC(=O)C2NC(=O)C(NC(=O)C3NC(=O)C4NC(=O)C(Cc5ccc(c(Cl)c5)Oc5cc3cc(c5O)Oc3ccc(cc3Cl)C2O)NC(=O)C(N)c2ccc(O)c(c2)Oc2cc(O)cc4c2)c2ccc(O)c(c2)-c2c(O)cc(O)cc21 (stereo not shown) [Compound 21] | 8 microgram/ml | 64 microgram/ml | 64 microgram/ml | 0.06 microgram/ml | 0.06 microgram/ml | 0.12 microgram/ml | 0.12 microgram/ml | 0.12 microgram/ml | 0.12 microgram/ml | 
NCCNCCCNCCNC(=O)C1NC(=O)C2NC(=O)C(NC(=O)C3NC(=O)C4NC(=O)C(Cc5ccc(c(Cl)c5)Oc5cc3cc(c5O)Oc3ccc(cc3Cl)C2O)NC(=O)C(N)c2ccc(O)c(c2)Oc2cc(O)cc4c2)c2ccc(O)c(c2)-c2c(O)cc(O)cc21 (stereo not shown) [Compound 24] | 4 microgram/ml | 128 microgram/ml | 64 microgram/ml | 0.06 microgram/ml | 0.06 microgram/ml | 0.06 microgram/ml | 0.12 microgram/ml | 0.12 microgram/ml | 0.06 microgram/ml | 
NCCCN1CCN(CCCNC(=O)C2NC(=O)C3NC(=O)C(NC(=O)C4NC(=O)C5NC(=O)C(Cc6ccc(c(Cl)c6)Oc6cc4cc(c6O)Oc4ccc(cc4Cl)C3O)NC(=O)C(N)c3ccc(O)c(c3)Oc3cc(O)cc5c3)c3ccc(O)c(c3)-c3c(O)cc(O)cc32)CC1 (stereo not shown) [Compound 30] | 4 microgram/ml | 128 microgram/ml | 16 microgram/ml | 0.06 microgram/ml | 0.06 microgram/ml | 0.12 microgram/ml | 0.12 microgram/ml | 0.12 microgram/ml | 0.06 microgram/ml | 
CC(=O)N[C@H]1[C@H](OC2c3ccc(c(Cl)c3)Oc3cc4cc(c3O)Oc3ccc(cc3Cl)CC3NC(=O)C(N)c5ccc(O)c(c5)Oc5cc(O)cc(c5)C(NC3=O)C(=O)NC4C(=O)NC3C(=O)NC2C(=O)NC(C(=O)NCCCNCCCCNCCCN)c2cc(O)cc(O[C@H]4O[C@H](CO)[C@@H](O)[C@H](O)[C@@H]4O)c2-c2cc3ccc2O)O[C@H](CO)[C@@H](O)[C@@H]1O (stereo partly shown) [Compound 39] | 32 microgram/ml | > 128 microgram/ml | 128 microgram/ml | 0.25 microgram/ml | 0.06 microgram/ml | 0.12 microgram/ml | 0.5 microgram/ml | 0.5 microgram/ml | 0.12 microgram/ml | 
CC(=O)N[C@H]1[C@H](OC2c3ccc(c(Cl)c3)Oc3cc4cc(c3O)Oc3ccc(cc3Cl)CC3NC(=O)C(N)c5ccc(O)c(c5)Oc5cc(O)cc(c5)C(NC3=O)C(=O)NC4C(=O)NC3C(=O)NC2C(=O)NC(C(=O)NCCCNCCCCNCCCN)c2cc(O)cc(O)c2-c2cc3ccc2O)O[C@H](CO)[C@@H](O)[C@@H]1O (stereo partly shown) [Compound 44] | 4 microgram/ml | 128 microgram/ml | 16 microgram/ml | 0.12 microgram/ml | 0.06 microgram/ml | 0.06 microgram/ml | 0.25 microgram/ml | 0.25 microgram/ml | 0.06 microgram/ml | 
CN(C)CCCN(CCCN)CCCNC(=O)C1NC(=O)C2NC(=O)C(NC(=O)C3NC(=O)C4NC(=O)C(Cc5ccc(c(Cl)c5)Oc5cc3cc(c5O)Oc3ccc(cc3Cl)C2O)NC(=O)C(N)c2ccc(O)c(c2)Oc2cc(O)cc4c2)c2ccc(O)c(c2)-c2c(O)cc(O)cc21 (stereo not shown) [Compound 51] | 8 microgram/ml | 128 microgram/ml | 32 microgram/ml | 0.12 microgram/ml | 0.06 microgram/ml | 0.12 microgram/ml | 0.25 microgram/ml | 0.12 microgram/ml | 0.06 microgram/ml | 
CCN(CC)CCN(CCCN)CCCNC(=O)C1NC(=O)C2NC(=O)C(NC(=O)C3NC(=O)C4NC(=O)C(Cc5ccc(c(Cl)c5)Oc5cc3cc(c5O)Oc3ccc(cc3Cl)C2O)NC(=O)C(N)c2ccc(O)c(c2)Oc2cc(O)cc4c2)c2ccc(O)c(c2)-c2c(O)cc(O)cc21 (stereo not shown) [Compound 52] | 32 microgram/ml | > 128 microgram/ml | 128 microgram/ml | 0.12 microgram/ml | 0.03 microgram/ml | 0.12 microgram/ml | 0.12 microgram/ml | 0.12 microgram/ml | 0.12 microgram/ml | 
CN(C)CCCN1CCN(C(=O)C2NC(=O)C3NC(=O)C(NC(=O)C4NC(=O)C5NC(=O)C(Cc6ccc(c(Cl)c6)Oc6cc4cc(c6O)Oc4ccc(cc4Cl)C3O)NC(=O)C(N)c3ccc(O)c(c3)Oc3cc(O)cc5c3)c3ccc(O)c(c3)-c3c(O)cc(O)cc32)CC1 (stereo not shown) [Compound 53] | 8 microgram/ml | 128 microgram/ml | 32 microgram/ml | 0.06 microgram/ml | 0.06 microgram/ml | 0.06 microgram/ml | 0.12 microgram/ml | 0.12 microgram/ml | 0.06 microgram/ml | 
NCCCNCCCCCCCCCNCCCNC(=O)C1NC(=O)C2NC(=O)C(NC(=O)C3NC(=O)C4NC(=O)C(Cc5ccc(c(Cl)c5)Oc5cc3cc(c5O)Oc3ccc(cc3Cl)C2O)NC(=O)C(N)c2ccc(O)c(c2)Oc2cc(O)cc4c2)c2ccc(O)c(c2)-c2c(O)cc(O)cc21 (stereo not shown) [Compound 54] | > 128 microgram/ml | > 128 microgram/ml | 128 microgram/ml | 0.5 microgram/ml | 0.12 microgram/ml | 2 microgram/ml | 2 microgram/ml | 0.12 microgram/ml | 0.03 microgram/ml | 
NCCCNCCCCCCCCCCNCCCNC(=O)C1NC(=O)C2NC(=O)C(NC(=O)C3NC(=O)C4NC(=O)C(Cc5ccc(c(Cl)c5)Oc5cc3cc(c5O)Oc3ccc(cc3Cl)C2O)NC(=O)C(N)c2ccc(O)c(c2)Oc2cc(O)cc4c2)c2ccc(O)c(c2)-c2c(O)cc(O)cc21 (stereo not shown) [Compound 55] | > 128 microgram/ml | > 128 microgram/ml | > 128 microgram/ml | 1 microgram/ml | 0.12 microgram/ml | 1 microgram/ml | 1 microgram/ml | 0.12 microgram/ml | 0.12 microgram/ml | 
teicoplanin [reference compound] |  |  |  |  |  |  |  |  |  | ≥ 32 microgram/ml

— patent US5500410A, “Substituted alkylamide derivatives of teicoplanin” (Gruppo Lepetit S.p.A., priority 1989, dated 1996)
